Experimental data published in patent publication US20200029601A1, “PHENYLACRYLIC ACID SOLUTION FOR BROAD SPECTRUM ANTIMICROBIAL APPLICATIONS FOR FOODSTUFFS” (KLF LABS LLC, priority 2018, published 2020).
Where two headings read alike, the source gives them in different places.

How the values were obtained:
Salmonella entericia = details: 1000 ppm, pH 4.0
Excerpt: (§1) To determine ascertain bactericidal and fungicidal qualities of the present food preservative solution, certain embodiments containing a combination of phenylacrylic acid, sorbic acid, a potentiation agent and a stabilization agent were subjected to a modified version of the United States Pharmocopedia (USP) antimicrobial efficacy test found in chapter 51 of the USP 40 manual. All embodiments were between pH 3.95-4.05.
(§2) To each of the embodiments, 1×10^6 cells from the following spoilage organisms; Escheria coli, Listeria monocytogenes, Salmonella entericia, Aspergillus flavus, Aspergillus brasiliensis, and Zygosaccharomyces bailii. The microbials were homogeneously dispersed in the various embodiments. Small aliquots are taken from the inoculated samples at the appropriate time point is serial diluted and plated. The plates are incubated, and growth is then enumerated. The counts are multiplied by the appropriate dilution factor to give a viable cell count at that time point.

Listeria monocytogenes = details: 1000 ppm, pH 4.0
Excerpt: as §1, §2

Aspergillus brasiliensis = details: 1000 ppm, pH 4.0
Excerpt: as §1, §2

Escheria coli = details: 1000 ppm, pH 4.0
Excerpt: as §1, §2

Aspergillus flavus = details: 1000 ppm, pH 4.0
Excerpt: as §1, §2

Zygosaccharomyces bailii = details: 1000 ppm, pH 4.0
Excerpt: as §1, §2

[1] = tested on: Saccharomyces cerevisiae, Candida parapsilosis, Zygosaccharomyces rouxii, and Zygosaccharomyces bailii; experiment: Experimental Test 3, summary statements over the yeast species; type: cell-based; details: Tables 12-15; pH 3.1-7.5
Description: The media was then sterilized by steam autoclaving the solution for 15 minutes at 121° C. and the media was placed into 3 96 cell plates and pH using either 0.1N HCl or 0.1N NaOH to pH values of 3.1, 5.6, 6.0, 6.5, 7.0, and 7.5.
Three exemplary embodiment solutions were added and serial diluted into a series of treatment wells and 0.5 McFarland Standard's worth of yeast cells were added to each well. The plates were incubated at 32° C. for 48 hours and then the OD was read at 600 nm. The percent inhibition was graphed as a percentage of the following formula indicated in Equation 1.

CC=CC=CC(=O)O [Sorbic Acid, 2,4 hexadienoic acid]
Microbial plate count (Salmonella entericia; Test Day 0): 800000 CFU/g | Microbial plate count (Salmonella entericia; Test Day 0.5): <10 CFU/g | Microbial plate count (Salmonella entericia; Test Day 1): <10 CFU/g | Microbial plate count (Salmonella entericia; Test Day 3): <10 CFU/g | Microbial plate count (Salmonella entericia; Test Day 7): <10 CFU/g | Microbial plate count (Listeria monocytogenes; Test Day 0): 620000 CFU/g | Microbial plate count (Listeria monocytogenes; Test Day 0.5): <10 CFU/g | Microbial plate count (Listeria monocytogenes; Test Day 1): <10 CFU/g | Microbial plate count (Listeria monocytogenes; Test Day 3): <10 CFU/g | Microbial plate count (Listeria monocytogenes; Test Day 7): <10 CFU/g | Microbial plate count (Aspergillus brasiliensis; Test Day 0): 630000 CFU/g | Microbial plate count (Aspergillus brasiliensis; Test Day 0.5): 230000 CFU/g | Microbial plate count (Aspergillus brasiliensis; Test Day 1): 520 CFU/g | Microbial plate count (Aspergillus brasiliensis; Test Day 3): <10 CFU/g | Microbial plate count (Aspergillus brasiliensis; Test Day 7): <10 CFU/g | Microbial plate count (Escheria coli; Test Day 0): 580000 CFU/g | Microbial plate count (Escheria coli; Test Day 0.5): <10 CFU/g | Microbial plate count (Escheria coli; Test Day 1): <10 CFU/g | Microbial plate count (Escheria coli; Test Day 3): <10 CFU/g | Microbial plate count (Escheria coli; Test Day 7): <10 CFU/g | Microbial plate count (Aspergillus flavus; Test Day 0): 510000 CFU/g | Microbial plate count (Aspergillus flavus; Test Day 0.5): 8500 CFU/g | Microbial plate count (Aspergillus flavus; Test Day 1): <10 CFU/g | Microbial plate count (Aspergillus flavus; Test Day 3): <10 CFU/g | Microbial plate count (Aspergillus flavus; Test Day 7): <10 CFU/g | Microbial plate count (Zygosaccharomyces bailii; Test Day 0): 480000 CFU/g | Microbial plate count (Zygosaccharomyces bailii; Test Day 0.5): 130000 CFU/g | Microbial plate count (Zygosaccharomyces bailii; Test Day 1): 1600 CFU/g | Microbial plate count (Zygosaccharomyces bailii; Test Day 3): 120 CFU/g | Microbial plate count (Zygosaccharomyces bailii; Test Day 7): <10 CFU/g

O=C(O)C(O)c1ccccc1 (stereo not shown) [mandelic acid]
increase of the efficacy of potassium sorbate by addition of mandelic acid [1]: 2-10 ×
